Publication PMC3959874 (European journal of dermatology : EJD, 2013)
Where two headings read alike, the source gives them in different places.

Legend:
[1] = biological target: Transporter, Serotonin (5-Hyd roxytryptamine) (SERT) (Homo sapiens, UniProt P31645); type: binding; settings: 10 μM; 25 °C, 60 min
Dopamine D4.2 = Dopamine D4.2 (Homo sapiens, UniProt P21917, DEL265-296); test: Radioligand binding assay; settings: 10 μM; 25 °C, 120 min
Histamine H3 = Histamine H3 (Homo sapiens, UniProt Q9Y5N1); test: Radioligand binding assay; settings: 10 μM; 25 °C, 120 min
Histamine H3, sequence (Q9Y5N1 whole entry): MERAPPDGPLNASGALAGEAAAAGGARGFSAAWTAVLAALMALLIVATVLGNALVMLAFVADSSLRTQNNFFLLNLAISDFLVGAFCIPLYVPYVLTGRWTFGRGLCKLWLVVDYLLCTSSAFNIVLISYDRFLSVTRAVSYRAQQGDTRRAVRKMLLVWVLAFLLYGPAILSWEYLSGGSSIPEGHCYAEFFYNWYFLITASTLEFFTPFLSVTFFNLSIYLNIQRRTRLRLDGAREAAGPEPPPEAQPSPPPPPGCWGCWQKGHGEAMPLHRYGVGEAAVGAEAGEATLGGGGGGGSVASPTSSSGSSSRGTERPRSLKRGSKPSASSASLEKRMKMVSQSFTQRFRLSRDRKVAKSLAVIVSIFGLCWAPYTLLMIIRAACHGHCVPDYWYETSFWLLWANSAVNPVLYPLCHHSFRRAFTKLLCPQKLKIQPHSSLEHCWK

Opiate n (OP3, MOP) = Opiate n (OP3, MOP) (Homo sapiens, UniProt P35372); test: Radioligand binding assay; settings: 10 μM; 25 °C, 60 min
Phorbol Ester = test: Radioligand binding assay; parameters: species or system mouse; settings: 10 μM; 25 °C, 60 min
CYP450, 2C19 = CYP450, 2C19 (Homo sapiens, UniProt P33261); test: Cytochrome P450 enzyme assay; type: in vitro ADME; settings: 10 μM; 37 °C, 45 min
[2] = biological target: Leukotriene, Cysteinyl CysLT 1 (Homo sapiens, UniProt Q9Y271); test: Radioligand binding assay; settings: 10 μM; 25 °C, 30 min
[3] = system: murine macrophage cell line RAW 264.7; test: Cytokine induction; type: cell-based; settings: RAW 264.7 cells, graded doses overnight, ELISA (figure 1A)
[4] = biological target: Serotonin (5-Hydroxytryptam ine) 5-HT1A (Homo sapiens, UniProt P08908); test: Radioligand binding assay; settings: 10 μM; 25 °C, 60 min
Serotonin (5-Hydroxytryptam ine) 5-HT1A, sequence (P08908 whole entry): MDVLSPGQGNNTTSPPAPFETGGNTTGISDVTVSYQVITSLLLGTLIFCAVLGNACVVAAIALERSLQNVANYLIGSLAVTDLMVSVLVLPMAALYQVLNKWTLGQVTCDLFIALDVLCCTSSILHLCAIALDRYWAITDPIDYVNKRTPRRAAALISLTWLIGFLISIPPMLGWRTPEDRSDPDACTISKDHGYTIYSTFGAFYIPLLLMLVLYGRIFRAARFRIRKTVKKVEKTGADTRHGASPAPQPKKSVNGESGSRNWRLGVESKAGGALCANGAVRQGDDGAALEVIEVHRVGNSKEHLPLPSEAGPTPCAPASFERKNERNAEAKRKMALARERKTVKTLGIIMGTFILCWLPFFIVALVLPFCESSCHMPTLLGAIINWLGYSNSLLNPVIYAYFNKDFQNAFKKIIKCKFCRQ

[5] = system: Glutamate, NMDA, Phencyclidine; test: Radioligand binding assay; parameters: species or system rat; settings: 10 μM; 25 °C, 45 min
Bradykinin B2 = Bradykinin B2 (Homo sapiens, UniProt P30411); test: Radioligand binding assay; settings: 10 μM; 25 °C, 60 min
Bradykinin B1 = Bradykinin B1 (Homo sapiens, UniProt P46663); test: Radioligand binding assay; settings: 10 μM; 25 °C, 60 min
Bradykinin B1, sequence (P46663 whole entry): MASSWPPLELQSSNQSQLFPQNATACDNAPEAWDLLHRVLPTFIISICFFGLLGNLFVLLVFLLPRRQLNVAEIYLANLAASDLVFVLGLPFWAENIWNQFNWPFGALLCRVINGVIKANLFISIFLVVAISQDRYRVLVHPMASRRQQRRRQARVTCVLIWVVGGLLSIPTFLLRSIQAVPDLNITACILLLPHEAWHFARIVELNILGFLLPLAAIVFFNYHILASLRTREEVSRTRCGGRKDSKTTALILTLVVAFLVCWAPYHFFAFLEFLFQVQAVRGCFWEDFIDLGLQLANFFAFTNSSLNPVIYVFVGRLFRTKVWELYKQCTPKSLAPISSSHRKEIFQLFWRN

Adrenergic a1D = Adrenergic a1D (Homo sapiens, UniProt P25100); test: Radioligand binding assay; settings: 10 μM; 25 °C, 60 min
Histamine H1 = Histamine H1 (Homo sapiens, UniProt P35367); type: binding; settings: 10 μM; 25 °C, 180 min
Dopamine D1 = Dopamine D1 (Homo sapiens, UniProt P21728); test: Radioligand binding assay; settings: 10 μM; 37 °C, 120 min
Rolipram = test: Radioligand binding assay; parameters: species or system rat; settings: 10 μM; 4 °C, 60 min
CYP450, 2C9 = CYP450, 2C9 (Homo sapiens, UniProt P11712); test: Cytochrome P450 enzyme assay; type: in vitro ADME; settings: 10 μM; 37 °C, 45 min
[6] = system: Calcium Channel L-Type, Benzothiazepine; test: Radioligand binding assay; parameters: species or system rat; settings: 10 μM; 4 °C, 180 min
Prostanoid EP4 = Prostanoid EP4 (Homo sapiens, UniProt P35408); test: Radioligand binding assay; settings: 10 μM; 25 °C, 120 min
Prostanoid EP4, sequence (P35408 whole entry): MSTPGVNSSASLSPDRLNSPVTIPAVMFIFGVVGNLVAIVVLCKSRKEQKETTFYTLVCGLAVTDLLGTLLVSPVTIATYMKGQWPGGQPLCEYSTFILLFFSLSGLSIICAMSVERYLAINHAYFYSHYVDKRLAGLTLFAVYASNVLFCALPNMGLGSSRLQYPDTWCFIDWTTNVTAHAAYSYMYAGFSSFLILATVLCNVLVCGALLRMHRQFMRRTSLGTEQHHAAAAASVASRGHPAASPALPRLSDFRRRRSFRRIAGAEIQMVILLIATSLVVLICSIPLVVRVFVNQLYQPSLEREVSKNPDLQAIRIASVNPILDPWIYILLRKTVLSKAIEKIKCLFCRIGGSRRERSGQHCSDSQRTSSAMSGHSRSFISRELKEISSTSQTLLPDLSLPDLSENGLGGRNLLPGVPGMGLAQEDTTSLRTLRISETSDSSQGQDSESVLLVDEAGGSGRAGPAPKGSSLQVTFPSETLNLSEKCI

Transporter, GABA = Transporter, GABA (Rattus norvegicus, UniProt P23978); test: Radioligand binding assay; settings: 10 μM; 25 °C, 20 min
Opiate 51 (OP1, DOP) = Opiate 51 (OP1, DOP) (Homo sapiens, UniProt P41143); test: Radioligand binding assay; settings: 10 μM; 25 °C, 60 min
Endothelin ETB = Endothelin ETB (Homo sapiens, UniProt P24530); test: Radioligand binding assay; settings: 10 μM; 25 °C, 120 min
Endothelin ETB, sequence (P24530 27-442): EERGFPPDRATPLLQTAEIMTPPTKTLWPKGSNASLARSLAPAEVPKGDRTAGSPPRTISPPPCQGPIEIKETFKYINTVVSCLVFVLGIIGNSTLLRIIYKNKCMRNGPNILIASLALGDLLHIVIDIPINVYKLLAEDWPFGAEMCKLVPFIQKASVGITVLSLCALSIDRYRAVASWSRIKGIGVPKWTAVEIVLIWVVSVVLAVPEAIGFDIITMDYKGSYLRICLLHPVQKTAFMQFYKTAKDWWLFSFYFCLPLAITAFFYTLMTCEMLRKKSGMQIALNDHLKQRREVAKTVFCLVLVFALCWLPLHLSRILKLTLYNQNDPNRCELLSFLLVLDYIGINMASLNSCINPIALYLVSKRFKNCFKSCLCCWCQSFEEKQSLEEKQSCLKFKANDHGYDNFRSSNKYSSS

Adenosine A3 = Adenosine A3 (Homo sapiens, UniProt P0DMS8); test: Radioligand binding assay; settings: 10 μM; 25 °C, 60 min
Muscarinic M1 = Muscarinic M1 (Homo sapiens, UniProt P11229); type: binding; settings: 10 μM; 25 °C, 120 min
Muscarinic M1, sequence (P11229 whole entry): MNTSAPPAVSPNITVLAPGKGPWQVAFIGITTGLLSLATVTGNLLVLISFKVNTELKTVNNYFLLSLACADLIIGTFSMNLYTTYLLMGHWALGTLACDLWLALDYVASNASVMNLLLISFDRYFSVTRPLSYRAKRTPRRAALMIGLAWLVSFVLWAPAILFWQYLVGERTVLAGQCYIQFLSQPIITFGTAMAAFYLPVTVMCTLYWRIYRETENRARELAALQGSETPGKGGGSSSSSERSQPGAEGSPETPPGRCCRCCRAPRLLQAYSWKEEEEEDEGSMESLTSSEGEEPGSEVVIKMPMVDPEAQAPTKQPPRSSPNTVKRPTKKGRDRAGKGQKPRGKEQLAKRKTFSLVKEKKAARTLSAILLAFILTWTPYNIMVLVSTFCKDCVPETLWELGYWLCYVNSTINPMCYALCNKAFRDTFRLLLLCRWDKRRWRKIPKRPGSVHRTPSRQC

[7] = system: primary bone marrow derived dendritic cells (BMDC); test: Cytokine induction; type: cell-based, mouse; settings: graded doses overnight, ELISA (figures 1B, C)
Purinergic P2x = test: Radioligand binding assay; parameters: species or system rabbit; settings: 10 μM; 25 °C, 30 min
Potassium Channel [KATP] = test: Radioligand binding assay; parameters: species or system human; settings: 10 μM; 25 °C, 120 min
[8] = system: Sodium Channel, Site 2 289593; test: Radioligand binding assay; parameters: species or system rat; settings: 10 μM; 37 °C, 60 min
Interleukin IL-1 = Interleukin IL-1 (Mus musculus, UniProt P13504); test: Radioligand binding assay; settings: 10 μM; 37 °C, 120 min
Interleukin IL-1, sequence (P13504 20-576): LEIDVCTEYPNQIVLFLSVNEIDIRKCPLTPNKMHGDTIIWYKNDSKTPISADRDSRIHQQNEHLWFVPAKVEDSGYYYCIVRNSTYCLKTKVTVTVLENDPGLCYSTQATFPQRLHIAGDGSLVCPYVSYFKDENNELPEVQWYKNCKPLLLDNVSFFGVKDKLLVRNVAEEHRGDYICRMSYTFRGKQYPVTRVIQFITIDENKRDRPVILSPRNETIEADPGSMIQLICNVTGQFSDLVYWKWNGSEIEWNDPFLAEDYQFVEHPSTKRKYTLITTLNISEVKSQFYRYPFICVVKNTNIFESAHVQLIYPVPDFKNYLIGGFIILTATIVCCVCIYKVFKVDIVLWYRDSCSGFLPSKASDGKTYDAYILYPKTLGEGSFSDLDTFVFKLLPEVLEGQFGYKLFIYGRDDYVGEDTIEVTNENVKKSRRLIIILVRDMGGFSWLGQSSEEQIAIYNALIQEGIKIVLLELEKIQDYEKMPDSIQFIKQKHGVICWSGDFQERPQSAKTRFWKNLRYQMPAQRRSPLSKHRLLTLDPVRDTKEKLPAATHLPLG

Estrogen ERa = Estrogen ERa (Homo sapiens, UniProt P03372); test: Radioligand binding assay; settings: 10 μM; 25 °C, 120 min
Estrogen ERa, sequence (P03372 whole entry): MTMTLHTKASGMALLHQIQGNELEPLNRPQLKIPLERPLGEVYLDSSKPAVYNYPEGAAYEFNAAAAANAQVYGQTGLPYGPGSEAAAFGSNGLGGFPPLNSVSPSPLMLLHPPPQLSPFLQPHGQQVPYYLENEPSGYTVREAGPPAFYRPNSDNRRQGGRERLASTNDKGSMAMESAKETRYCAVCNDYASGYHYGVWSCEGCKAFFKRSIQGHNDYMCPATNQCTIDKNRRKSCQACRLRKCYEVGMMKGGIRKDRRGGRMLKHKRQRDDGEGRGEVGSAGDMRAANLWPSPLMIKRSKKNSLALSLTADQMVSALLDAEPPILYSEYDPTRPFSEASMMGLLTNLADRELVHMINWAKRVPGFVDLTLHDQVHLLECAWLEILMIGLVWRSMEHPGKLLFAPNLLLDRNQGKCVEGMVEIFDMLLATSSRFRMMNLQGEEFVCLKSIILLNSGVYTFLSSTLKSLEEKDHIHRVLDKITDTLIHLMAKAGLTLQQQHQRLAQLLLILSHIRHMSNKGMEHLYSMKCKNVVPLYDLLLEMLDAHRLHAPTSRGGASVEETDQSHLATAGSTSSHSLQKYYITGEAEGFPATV

Opiate K (OP2, KOP) = Opiate K (OP2, KOP) (Homo sapiens, UniProt P41145); test: Radioligand binding assay; settings: 10 μM; 25 °C, 60 min
Sigma al = Sigma al (Homo sapiens, UniProt Q99720); test: Radioligand binding assay; settings: 10 μM; 37 °C, 240 min
[9] = type: in vivo, mice; settings: for Body weight change after a single intravenous injection of the MTD: 150 mg/kg TMX-202 or 15 mg/kg IMQ i.v. (figure 4)
Glutamate, NMDA, Agonism = test: Radioligand binding assay; parameters: species or system rat; settings: 10 μM; 4 °C, 20 min
CYP450, 1A2 = CYP450, 1A2 (Homo sapiens, UniProt P05177); test: Cytochrome P450 enzyme assay; type: in vitro ADME; settings: 10 μM; 37 °C, 30 min
Endothelin ETA = Endothelin ETA (Homo sapiens, UniProt P25101); test: Radioligand binding assay; settings: 10 μM; 37 °C, 120 min
Glutamate, Kainate = test: Radioligand binding assay; parameters: species or system rat; settings: 10 μM; 4 °C, 60 min
GABAA, Muscimol, Central = test: Radioligand binding assay; parameters: species or system rat; settings: 10 μM; 4 °C, 10 min
Adrenergic a1B = Adrenergic a1B (Rattus norvegicus, UniProt P15823); test: Radioligand binding assay; settings: 10 μM; 25 °C, 60 min
human whole blood = test: Cytokine induction in human whole blood assay; type: cell-based; settings: three donors (figures 1D–F)

Transporter, Serotonin (5-Hyd roxytryptamine) (SERT), sequence (P31645 whole entry): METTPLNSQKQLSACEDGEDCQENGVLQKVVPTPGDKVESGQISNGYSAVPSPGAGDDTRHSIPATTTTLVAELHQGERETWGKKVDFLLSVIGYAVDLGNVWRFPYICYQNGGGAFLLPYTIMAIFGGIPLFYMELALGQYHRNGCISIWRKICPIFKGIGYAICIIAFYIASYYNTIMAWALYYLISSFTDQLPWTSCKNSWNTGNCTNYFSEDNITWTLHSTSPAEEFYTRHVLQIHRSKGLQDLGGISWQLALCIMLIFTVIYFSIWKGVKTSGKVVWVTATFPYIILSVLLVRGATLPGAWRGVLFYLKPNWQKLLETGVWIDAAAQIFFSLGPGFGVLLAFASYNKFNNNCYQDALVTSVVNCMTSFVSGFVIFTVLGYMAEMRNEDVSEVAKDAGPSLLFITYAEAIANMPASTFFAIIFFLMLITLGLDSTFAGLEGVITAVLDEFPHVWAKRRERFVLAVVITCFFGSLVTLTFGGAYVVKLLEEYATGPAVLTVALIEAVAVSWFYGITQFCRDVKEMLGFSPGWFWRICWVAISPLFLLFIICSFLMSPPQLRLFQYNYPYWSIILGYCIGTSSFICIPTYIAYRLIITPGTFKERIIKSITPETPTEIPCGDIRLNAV

## CCCCCCCCCCCC(=O)OC[C@@H](COP(=O)(O)OCCNC(=O)c1ccc(Cn2c(=O)[nH]c3c(N)nc(OCCOC)nc32)cc1)OC(=O)CCCCCCCCCCC [TMX-202]
[1]
  Percent inhibition of specific radioligand binding: 18%
Dopamine D4.2
  Percent inhibition of specific radioligand binding: 14%
Histamine H3
  Percent inhibition of specific radioligand binding: −14%
Opiate n (OP3, MOP)
  Percent inhibition of specific radioligand binding: 42%
Phorbol Ester
  Percent inhibition of specific radioligand binding: −8%
CYP450, 2C19
  Percent inhibition of enzyme activity: 1%
[2]
  Percent inhibition of specific radioligand binding: 10%
[3]
  Potency of mTNFα induction compared with IMQ: more potent cytokine inducer
[4]
  Percent inhibition of specific radioligand binding: −7%
[5]
  Percent inhibition of specific radioligand binding: 2%
Bradykinin B2
  Percent inhibition of specific radioligand binding: −2%
Bradykinin B1
  Percent inhibition of specific radioligand binding: 3%
Adrenergic a1D
  Percent inhibition of specific radioligand binding: 6%
Histamine H1
  Percent inhibition of specific radioligand binding: −6%
Dopamine D1
  Percent inhibition of specific radioligand binding: 15%
Rolipram
  Percent inhibition of specific radioligand binding: 21%
CYP450, 2C9
  Percent inhibition of enzyme activity: −4%
[6]
  Percent inhibition of specific radioligand binding: 1%
Prostanoid EP4
  Percent inhibition of specific radioligand binding: 7%
Transporter, GABA
  Percent inhibition of specific radioligand binding: 1%
Opiate 51 (OP1, DOP)
  Percent inhibition of specific radioligand binding: 5%
Endothelin ETB
  Percent inhibition of specific radioligand binding: −7%
Adenosine A3
  Percent inhibition of specific radioligand binding: 6%
Muscarinic M1
  Percent inhibition of specific radioligand binding: 0%
[7]
  Potency of mIL-6 and mIL-1β induction compared with IMQ: more potent cytokine inducer
Purinergic P2x
  Percent inhibition of specific radioligand binding: 9%
Potassium Channel [KATP]
  Percent inhibition of specific radioligand binding: 8%
[8]
  Percent inhibition of specific radioligand binding: 15%
Interleukin IL-1
  Percent inhibition of specific radioligand binding: 5%
Estrogen ERa
  Percent inhibition of specific radioligand binding: 7%
Opiate K (OP2, KOP)
  Percent inhibition of specific radioligand binding: −9%
Sigma al
  Percent inhibition of specific radioligand binding: −5%
[9]; C57BL/6 mice, intravenous administration
  MTD (molar): approximately 163 μmoles/kg
[9]; Tlr7−/− or Myd88−/− mice
  Body weight change after a single intravenous injection of the MTD: no significant body weight loss
[9]; WT mice
  Body weight change after a single intravenous injection of the MTD: significant reduction in body weight
Glutamate, NMDA, Agonism
  Percent inhibition of specific radioligand binding: 10%
CYP450, 1A2
  Percent inhibition of enzyme activity: −4%
Endothelin ETA
  Percent inhibition of specific radioligand binding: 13%
Glutamate, Kainate
  Percent inhibition of specific radioligand binding: 1%
GABAA, Muscimol, Central
  Percent inhibition of specific radioligand binding: −3%
Adrenergic a1B
  Percent inhibition of specific radioligand binding: 0%
Human whole blood
  Potency of hIL-12, hIL-6 and hIFN-α induction compared with IMQ: higher potency
